In ChEMBL document CHEMBL1208741, “Docking and SAR studies of salacinol derivatives as alpha-glucosidase inhibitors” (Bioorg Med Chem Lett, 2010) one finds pIC50 data, which are given here for eight compounds.

A value given as a limit tells only on which side of the number the result lay.

The nature of the test: Inhibition of alpha glucosidase.
Consider `O=S(=O)([O-])O[C@@H](CO)CC[S@+]1C[C@@H](O)[C@H](O)[C@H]1CO`, for which the pIC50 was under 3.
For `O=S(=O)([O-])OCCC[S@+]1C[C@@H](O)[C@H](O)[C@H]1CO` the value was under 3; for `O=S(=O)([O-])O[C@H](CO)[C@@H](O)C[S@+]1C[C@@H](O)[C@H](O)[C@H]1CO`, under 3.
The same measure for `[O-]C[C@@H](O)[C@@H](O)C[S@+]1C[C@@H](O)[C@H](O)[C@H]1CO`: under 3; for `[O-]CC[C@H](O)C[S@+]1C[C@@H](O)[C@H](O)[C@H]1CO`: 3.94.
For `[O-][C@@H](CO)[C@H](O)C[S@+]1C[C@@H](O)[C@H](O)[C@H]1CO` [NEOSALACINOL] the value was 5.1; for `O=S(=O)([O-])O[C@@H](CO)[C@H](O)C[S@+]1C[C@@H](O)[C@H](O)[C@H]1CO` [SALACINOL], 5.28.
`O=S(=O)([O-])OC[C@H](O)C[S@+]1C[C@@H](O)[C@H](O)[C@H]1CO` [SALAPRINOL]: the pIC50 amounted to 3.
